In patent US20080171370A1, “DETOXIFYING PRE-TREATED LIGNOCELLULOSE-CONTAINING MATERIALS” (Novozymes North America, Inc., priority 2006, published 2008):
Entries after “also recorded” stand apart in the source; their conditions may differ.

Tests used:
[1] = tested on: RED STAR Ethanol Red yeast; test: Fermentation of detoxified fully unwashed pretreated corn stover (fuwPCS) filtrate, Example 1; format: cell-based; conditions: for average ethanol yield: 24 hours fermentation, 0.2 g/L yeast, 32° C., pH 5.0
Protocol: Yeast Preparation: Freeze-dried RED STAR™ Ethanol Red yeast re-hydrated in 10×YP media for 30 minutes at 32° C. It was dosed into the fermentations at a dose of 0.2 g/L.
Dilute acid steam exploded corn stover (PCS) was diluted with water and adjusted to pH 5.0 with NH4OH. The total solids (TS) level was 15 wt.-%. This sample was then saccharified for 63 hours at 50° C. with Cellutolytic Preparation A. Penicillin was added at a rate of 1 gl/L also added prior to saccharification was citrate buffer at a rate of 50 mL of 1 M citrate buffer per 100 ml of substrate. Following the saccharification step, the sample was filtered via a 0.2 micron Nalgene vacuum fitter system (Product # 8-000043-0803) to remove the solids and used for fermentation. The fuwPCS was then pipetted into separate sterile, 15 mL conical centrifuge tubes containing a small CO2 vent hole.
The pH was adjusted to about 2 using H2SO4; gallic acid was dosed at concentrations of 2 mM (GaA-L) and at 10 mM (GaA-H). The gallic acid was prepared by sonicating […] of garlic acid in 100 ml of de-ionized water. The broth was allowed to stand at 20° C. overnight and then readjusted to pH 5 using NaOH before adding yeast.
The dosing for amidase was carried out by treating with 5.6 Units/5 g substrate (AMD-L) and also 56 Units/5 g substrate (AMD-H). The amidase treated samples were brought to a pH of 7 with NaOH and allowed to sit in an oven at a temperature of 37° C. for 18 hours as a pre-treatment.
Fermentations were carried out in sterile 15 mL conical plastic centrifuge tubes at 32° C. for 48 hours at pH 5.0. A total of 5 grams of sample was fermented for each treatment. Treatments were run in triplicate.
Fermentation samples were collected after 24 hours for the 0.2 g/L yeast dose and analyzed for acetic acid and ethanol using an Agilent HPLC System with an analytical BIO-RAD Aminex HPX-87H column and a BIO-RAD Cation H refill guard column.

[2] = tested on: RED STAR Ethanol Red yeast; test: Fermentation of enzyme-detoxified fuwPCS filtrate at 37° C., Example 2; format: cell-based; conditions: detoxified 19 hours
Protocol: Dilute acid steam exploded corn stover (PCS) was diluted with water and adjusted to pH 5.0 with NH4OH. The total solids (TS) level was 16%. This sample was then saccharified for 72 hours at 50° C. with Cellulolytic Preparation A. Penicillin and citrate buffer were also added prior to saccharification. Following the saccharification step, the sample was filtered to remove the solids and the filtrate was used for fermentation. The fuwPCS was then pipetted into separate sterile, 15 mL conical centrifuge tubes containing a small CO2 vent hole.
Freeze-dried RED STAR™ Ethanol Red yeast was re-hydrated in 10×YP media for 30 minutes at 32° C. it was dosed into the fermentations at a dose of 0.2 g/L.
Filtered, unwashed PCS was detoxified for 19 hours using the optimal conditions for each enzyme. For amidase, the pH of the fuwPCS was first adjusted up to 7.0 using NaOH, the amidase was added at the tested dosages, and the tubes were incubated at 37° C. The pH of the fuwPCS was then readjusted to 5.0 using H2SO4 prior to fermentation. For the carbonic anhydrase the pH was left at 5.0, the enzyme was added and the tubes were incubated at 37° C. All enzymes were diluted with de-ionized water prior to dosing. Dosing ranges for each enzyme were as follows in units/mL of the final solution for amidase and kilo units/mL for carbonic anhydrase.
A total of 3.5 grams of sample was fermented for each treatment and the initial pH for all fermentations was 5.0. Treatments were run in triplicate. The final TS level was 13.7 wt.-%. These fermentations were run at a higher temperature of 37° C.
Fermentation samples were collected after 12 and 24 hours and analyzed for ethanol using an Agilent HPLC System with an analytical BIO-RAD Aminex HPX-87H column and a BIO-RAD Cation-H refill guard column.

## O=C(O)c1cc(O)c(O)c(O)c1 [Gallic acid, 3,4,5-trihydroxybenzoic acid]
[1]; gallic acid high dose (GaA-H) 10 mM, pH about 2, 20° C. overnight
  average ethanol yield: 17.8 g/L
[1]; gallic acid low dose (GaA-L) 2 mM, pH about 2, 20° C. overnight
  average ethanol yield: 19.4 g/L
[1]; gallic acid versus control, FIG. 2
  amount of acetic acid present in the fermentation: significant drop

## amidase: amidase from Pseudomonas aeruginosa (Sigma Product # A6691)
[2]; all amidase doses tested (0.3-1.1-5.4-16.1), pH 7.0, 37° C., after 12 hours of fermentation
  effect on ethanol production by the yeast: significant boosting effect
[2]; all amidase doses tested (0.3-1.1-5.4-16.1), pH 7.0, 37° C., after 24 hours of fermentation
  effect on ethanol production by the yeast: boost in ethanol yield; also recorded: significant boosting effect
[1]; amidase high dose (AMD-H) 56 Units/5 g substrate, pre-treatment pH 7, 37° C., 18 hours
  average ethanol yield: 23.6 g/L
[1]; amidase low dose (AMD-L) 5.6 Units/5 g substrate, pre-treatment pH 7, 37° C., 18 hours
  average ethanol yield: 21.8 g/L

## carbonic anhydrase: carbonic anhydrase from bovine erythrocytes (lyophilized powder, ≧2,500 W-A units/mg protein) Sigma Product # C3934
[2]; highest dose of carbonic anhydrase (33.3; 243 kilo units/g TS), pH 5.0, 37° C., after 12 hours of fermentation
  effect on ethanol production by the yeast: boost in ethanol production; also recorded: significant boosting effects
[2]; highest dose of carbonic anhydrase (33.3; 243 kilo units/g TS), pH 5.0, 37° C., after 24 hours of fermentation
  effect on ethanol production by the yeast: significant boosting effects
